Results: patent US20220033431A1, “Cyclic Di-Nucleotide Compounds as STING Agonists” (Merck Sharp & Dohme Corp., priority 2018, published 2022)
Read-outs that look alike come from different tables or passages of the source.

Tests used:
full-length HAQ STING = molecular target: T1, full-length HAQ STING (Homo sapiens, UniProt Q86WV6, G230A/H232R/R293Q/R71H); test: 3H-cGAMP filtration binding assay (HAQ STING); conditions: 3H-cGAMP filtration binding assay for HAQ STING; competition with tritiated cGAMP
T1 construct: Full-Length HAQ STING [STING(1-379)R71H, G230A, H232R,; made in house; host or cells: Trichoplusia ni insect cells (baculovirus made in Sf21); membrane preparation
T1 sequence (Q86WV6 with tags, fused parts or gaps R71H/G230A/H232R/R293Q): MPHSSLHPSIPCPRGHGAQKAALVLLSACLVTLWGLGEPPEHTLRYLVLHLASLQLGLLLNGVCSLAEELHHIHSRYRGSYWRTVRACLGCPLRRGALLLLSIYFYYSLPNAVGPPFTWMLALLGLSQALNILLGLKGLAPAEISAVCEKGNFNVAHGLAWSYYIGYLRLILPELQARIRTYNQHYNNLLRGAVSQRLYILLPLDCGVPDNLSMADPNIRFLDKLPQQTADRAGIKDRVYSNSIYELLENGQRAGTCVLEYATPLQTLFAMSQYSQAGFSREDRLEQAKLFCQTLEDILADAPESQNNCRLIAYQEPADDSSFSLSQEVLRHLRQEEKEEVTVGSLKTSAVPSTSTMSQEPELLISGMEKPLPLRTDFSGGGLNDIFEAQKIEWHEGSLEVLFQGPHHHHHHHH
Source text: The ability of compounds to bind STING is quantified by their ability to compete with tritiated cGAMP ligand for human STING receptor membrane using a radioactive filter-binding assay. The binding assay employs STING receptor obtained from Trichoplusia ni cell membranes (T.ni; Expression Systems, cat #94-002F, www.expressionsystems.com) overexpressing full-length HAQ STING and tritiated cGAMP ligand.
The basic HAQ STING filtration assay protocol is as follows:
Compound and membrane then preincubated for 60 min at RT to allow compound binding to equilibrate. Following equilibration, 8 nM of [^3H]c-GAMP ligand was prepared by diluting into assay buffer, and 50 uL of this working stock was then manually added to each well of the assay plate. […] The filter plates were then dried at 55° C. for 30 min using a pressurized oven before 30 uL of ULTIMA GOLD F scintillate was added to each well. Tritium levels for each reaction well were then measured using a PerkinElmer TopCount plate reader.
After normalization to controls, the percent activity for each compound concentration was calculated by measuring the amount of remaining radioactivity. The plot of percent activity versus the log of compound concentration was fit with a 4-parameter dose response equation to calculate EC50 values.

THP1 cells = test: IFN-β secretion in THP1 cell culture (5 h); format: cell-based, human; conditions: 30 uM cGAMP = 100%; for activation at 30 µM: Homo sapiens, THP-1, 5 h
Description: The ability of compounds to stimulate the secretion of interferon-beta from THP1 cells was measured using a human IFN-β AlphaLISA kit (Perkin Elmer, Cat. No. AL265F). The basic protocol is as follows:
A Labcyte Echo 550 acoustic dispenser was used to transfer 120 nL of compound dissolved in DMSO into the wells of an empty, sterile 384-well microplate, (Corning, Cat. No. 3712). THP1 cells (American Type Culture Collection, Cat. No. TIB202) previously frozen in Recovery Medium (Life Technologies, Cat. No. 12648-010) were thawed and immediately diluted 10-fold into 37° C. assay medium (RPMI 1640+L-Glutamine & phenol red, Life Technologies, Cat. No. 11875-085; 0.5% heat inactivated fetal bovine serum, Sigma Aldrich, Cat. No. F4135; 1 mM Sodium Pyruvate, Life Technologies, Cat. No. 11360-070; lx non essential amino acids; Life Technologies, Cat. No. 11140-050). The cell viability and count was ascertained using a Beckman Coulter V-Cell XR cell counter. The cell suspension was centrifuged at 200×g for 5 min at RT. Cells were resuspended to a density of 0.8×10^6/mL in 37° C. assay medium. Subsequent liquid transfers were performed using either a Matrix electronic multichannel pipette or an Agilent Bravo Automated Liquid Handling Platform.
The assay was started by dispensing 40 μL of the previously prepared cell suspension into the wells of the plate containing compounds. After 5 h incubation at 37° C., 5% CO2 in a humidified atmosphere, the plate of cells and compounds was centrifuged at 200×g for 5 min at RT. From each well, […] of supernatant was transferred into corresponding wells of a white 384-well plate (Perkin Elmer, Cat. No. 6005620). To these supernatant-containing wells was added 10 μL of 5× Anti-Analyte Acceptor beads (50 μg/mL of AlphaLISA HiBlock Buffer) and incubated for 30 min at RT while shaking on an orbital plate shaker. To each well was added 10 μL of 5× Biotinylated Antibody Anti-analyte (5 nM in AlphaLISA HiBlock Buffer) and incubated on an orbital plate shaker for 60 min at RT or overnight at 4° C. To each well was added 25 μL of 2× SA-Donor beads ([…] in AlphaLISA HiBlock Buffer) and incubated for 30-45 min at RT in the dark while shaking on an orbital plate shaker. The plate was then read on a Perkin Elmer Envision (λex=680 nm, λem=[…]). The percent effect of the AlphaLISA signal at each compound concentration was calculated based on 30 uM cGAMP positive controls and 0.3% DMSO negative controls. The plot of percent effect versus the log of compound concentration was fit with a 4-parameter concentration response equation to calculate EC50 values. The test compounds were tested at concentrations 30000, 10000, 3333, 1111, 370.4, 123.4, 41.2, 13.7, 4.6, and 1.5 nM with 0.3% residual DMSO. The control compound, cGAMP was tested at concentrations 100000, 33333, 11111, 3704, 1235, 412, 137, 46, and 15 nM with 0.3% residual DMSO.
Compounds of the disclosure were evaluated for IFN-β secretion in THP1 cell culture as described above. The following table tabulates the biological data for these compounds as percent activation relative to 2′3′-cGAMP at the 30 μM concentration.

[1] = IFN-β secretion, THP1 cells, 5 h, 30 μM
[2] = IFN-β secretion, THP1 cells, 5 h, 30 μM, read-out: % Effect at 30 μM relative to 2′3′-cGAMP

Row | EC50 (full-length HAQ STING) | SMILES | % Effect at 30 μM relative to 2′3′-cGAMP (THP1 cells; [1]) | activation at 30 µM (THP1 cells; read-out: % Effect at 30 μM relative to 2′3′-cGAMP, IFN-β secretion, THP1 cells, 5 h, 30 μM) | activation at 30 µM (THP1 cells; [2])
1 | 51.3 nM | Nc1nc2c(ncn2[C@@H]2O[C@@H]3COP(=O)(S)O[C@H]4[C@H](F)[C@H](n5nnc6c(N)ncnc65)O[C@@H]4COP(=O)(S)O[C@H]2[C@@H]3O)c(=O)[nH]1 (single isomer, unassigned) [Example 3] | 128% |  | 
2 |  | Nc1nc2c(nnn2[C@@H]2O[C@@H]3COP(=O)(S)O[C@H]4[C@H](F)[C@H](n5nnc6c(N)ncnc65)O[C@@H]4COP(=O)(S)O[C@H]2[C@@H]3F)c(=O)[nH]1 (stereo partly drawn) [Example 24, 5-amino-3-[(5R,7R,8R,12aR,14R,15S,15aR,16R)-14-(7-amino-3H-[1,2,3]triazolo[4,5-d]pyrimidin-3-yl)-15,16-difluoro-2,10-dioxido-2,10-disulfanyloctahydro-12H-5,8-methanofuro[3,2-1][1,3,6,9,11,2,10]pentaoxadiphosphacyclotetradecin-7-yl]-3,6-dihydro-7H-[1,2,3]triazolo[4,5-d]pyrimidin-7-one] |  | 129% | 
3 |  | Nc1nc2c(ncn2[C@@H]2O[C@@H]3COP(=O)(O)O[C@H]4[C@H](F)[C@H](n5cnc6c(N)ncnc65)O[C@@H]4COP(=O)(S)O[C@H]2[C@@H]3F)c(=O)[nH]1 (single isomer, unassigned) [Example 13] | 79% |  | 
4 |  | Nc1nc2c(ncn2[C@@H]2O[C@@H]3COP(=O)(S)O[C@H]4[C@H]5OC[C@]4(COP(=O)(S)O[C@H]2[C@@H]3O)O[C@H]5n2cnc3c(N)ncnc32)c(=O)[nH]1 (single isomer, unassigned) [Example 5] |  |  | 113%
5 | 99.9 nM | Nc1nc2c(nnn2[C@@H]2O[C@@H]3COP(=O)(S)O[C@H]4C[C@H](n5ccc6c(N)ncnc65)O[C@@H]4COP(=O)(S)O[C@H]2[C@@H]3F)c(=O)[nH]1 (single isomer, unassigned) [Example 25] |  |  | 92%
6 |  | Nc1nc2c(ncn2[C@@H]2O[C@@H]3COP(=O)(S)O[C@H]4[C@H]5OC[C@]4(COP(=O)(S)O[C@H]2[C@@H]3O)O[C@H]5n2cnc3c(N)ncnc32)c(=O)[nH]1 (single isomer, unassigned) [Example 4] | 113% |  | 
7 |  | Nc1nc2c(nnn2[C@@H]2O[C@@H]3COP(=O)(S)O[C@H]4C[C@H](n5ccc6c(N)ncnc65)O[C@@H]4COP(=O)(S)O[C@H]2C3)c(=O)[nH]1 (single isomer, unassigned) [Example 22] |  |  | 69%
8 |  | Nc1nc2c(ncn2[C@@H]2O[C@@H]3COP(=O)(S)O[C@H]4[C@H](F)[C@H](n5cnc6c(N)ncnc65)O[C@@H]4COP(=O)(S)O[C@H]2[C@@H]3F)c(=O)[nH]1 (single isomer, unassigned) [Example 17] | 141% |  | 
9 | 3670 nM | Nc1nc2c(ncn2[C@@H]2O[C@@H]3COP(=O)(S)O[C@H]4[C@H](F)[C@H](n5nnc6c(N)ncnc65)O[C@@H]4COP(=O)(S)O[C@H]2C3)c(=O)[nH]1 (single isomer, unassigned) [Example 7] | 15% |  | 
10 | 5.62 nM | Nc1nc2c(nnn2[C@@H]2O[C@@H]3COP(=O)(S)O[C@H]4C[C@H](n5ccc6c(N)ncnc65)O[C@@H]4COP(=O)(S)O[C@H]2[C@@H]3F)c(=O)[nH]1 (single isomer, unassigned) [Example 26] | 79% |  | 
11 |  | Nc1nc2c(ncn2[C@@H]2O[C@@H]3COP(=O)(S)O[C@H]4[C@H](F)[C@H](n5cnc6c(N)ncnc65)O[C@@H]4COP(=O)(S)O[C@H]2[C@@H]3F)c(=O)[nH]1 (single isomer, unassigned) [Example 16] | 188% |  | 
12 | 241 nM | Nc1nc2c(ncn2[C@@H]2O[C@@H]3COP(=O)(S)O[C@H]4[C@H](F)[C@H](n5nnc6c(N)ncnc65)O[C@@H]4COP(=O)(S)O[C@H]2C3)c(=O)[nH]1 (single isomer, unassigned) [Example 6] | 60% |  | 
13 |  | Nc1nc2c(ncn2[C@@H]2O[C@@H]3COP(=O)(S)O[C@H]4[C@H](F)[C@H](n5cnc6c(N)ncnc65)O[C@@H]4COP(=O)(S)O[C@H]2[C@@H]3F)c(=O)[nH]1 (single isomer, unassigned) [Example 15] | 31% |  | 
14 |  | Nc1nc2c(ncn2[C@@H]2O[C@@H]3COP(=O)(O)O[C@H]4[C@H](F)[C@H](n5cnc6c(N)ncnc65)O[C@@H]4COP(=O)(S)O[C@H]2[C@@H]3F)c(=O)[nH]1 (single isomer, unassigned) [Example 14] | 257% |  | 
15 | 1140 nM | Nc1nc2c(ncn2[C@@H]2O[C@@H]3COP(=O)(S)O[C@H]4[C@H](F)[C@H](n5nnc6c(N)ncnc65)O[C@@H]4COP(=O)(S)O[C@H]2[C@@H]3O)c(=O)[nH]1 (single isomer, unassigned) [Example 1] | 24% |  | 
16 | 26 nM | Nc1nc2c(ncn2[C@@H]2O[C@@H]3COP(=O)(S)O[C@H]4[C@H](F)[C@H](n5nnc6c(N)ncnc65)O[C@@H]4COP(=O)(S)O[C@H]2C3)c(=O)[nH]1 (single isomer, unassigned) [Example 8] | 145% |  | 
17 | 1130 nM | Nc1nc2c(ncn2[C@@H]2O[C@@H]3COP(=O)(S)O[C@H]4[C@H](F)[C@H](n5nnc6c(N)ncnc65)O[C@@H]4COP(=O)(S)O[C@H]2[C@@H]3O)c(=O)[nH]1 (single isomer, unassigned) [Example 2] | 29% |  | 
